From PMC7367283, “A PIP2 substitute mediates voltage sensor-pore coupling in KCNQ activation” (Communications Biology, 2020)

Biological target: hERG (Homo sapiens, UniProt Q12809)
Assay: Two-electrode voltage clamp of hERG in Xenopus oocytes
Type: cell-based
Settings: 10 µM CP1
Text: Since CP1 has a similar effect to PIP2 in mediating VSD-pore coupling in KCNQ channels, we tested if CP1 has effects on other ion channels that are also sensitive to PIP2 or are voltage activated and share general structural features of the VSD and the pore with KCNQ. […] On the other hand, NaV1.5 and KV4.2 are voltage-gated ion channels.
Fig. 6 Effects of CP1 on other ion channels expressed in Xenopus oocytes. a Currents of Kir1.1, CaV1.2, NaV1.5, hERG, and KV4.2 before and after application of 10 µM CP1, respectively. The voltages for holding, test, and returning pulses were Kir1.1, 0 mV, −100 to +60 mV, 0; CaV1.2, −100 mV, −100 to +60, −100 mV; NaV1.5, −100, −120 to +40 mV, −120 mV; […]; KV4.2, −80 mV, −100 mV to +80 mV, −40 mV; HCN4, −30 mV, −30 to −140 mV, −120 mV. b Current–voltage relations of Kir1.1 channel in the absence or presence of 10 µM CP1 (n = 7). c–g G–V relations of indicated channels with and without 10 µM CP1. The ΔV1/2 of G–V relations (mV) are CaV1.2, 3.38 ± 0.71 mV (c); NaV1.5, −2.26 ± 0.95 mV (d); hERG, 6.85 ± 1.81 mV (e); KV 4.2, −2.26 ± 2.88 mV (f); HCN4, 17.13 ± 1.59 mV (g).
Complementary DNA (cDNA) encoding human KCNQ1 (UniProtKB/Swiss‐Prot under accession no. P51787), KCNQ2 (O43526), KCNQ3 (O43525), KCNE1 (P15382), Kir1.1 (P48048), hERG (Q12809), KV4.2 (Q63881), NaV1.5 (Q14524), NaV β1 (Q07699), CaV1.2 (Q13936), CaV β1a (Q02641), CaV α2/δ1 (P54289), and HCN4 (Q9Y3Q4) were subcloned into oocyte expression vectors, respectively. Site-directed mutations of the KCNQ1 channel were all produced by overlap extension polymerase chain reaction (PCR) with high-fidelity Pfu polymerase (Stratagene, CA). The presence of the desired mutation was verified by sequencing the PCR-amplified regions. All the primer sequences used in this study are available in Supplementary Table 1. The complementary RNA (cRNA) of all these channels and mutations was transcribed in vitro with the T3, T7, or SP6 polymerase mMessage mMachine kit (Invitrogen, Thermo Fisher Scientific, MO).
The whole-oocyte ionic currents were recorded with a GeneClamp 500B amplifier (Axon Instruments, CA) or iTEV90 amplifier (HEKA, Germany) and then sampled at 1 kHz and low-pass-filtered at 2 kHz. The Patchmaster software (HEKA, Germany) was used to acquire data. The Kir1.1 current was recorded with a high K^+ bath solution containing (in mM) 96 KCl, 4 NaCl, 1 CaCl2, 2 MgCl2, and 10 HEPES, pH 7.3–7.4. The HCN4 current was recorded in ND66 solution containing (in mM) 66 NaCl, 32 KCl, 1.8 CaCl2, 1 MgCl2, and 5 HEPES, pH 7.6. All the other potassium channels were recorded in ND96 solution. The currents of CaV1.2 channel were recorded in 40 mM Ba^2+ bath solution containing (in mM) 40 Ba(OH)2, 50 TEA-OH, 2 KOH, and 5 HEPES, adjusted to pH 7.4 with methanesulfonic acid. CP1 (DISODIUM 5-BROMO-2-[9-CHLORO-3-(SULFONATOOXY) NAPHTHO [1,2-B] THIEN-2-YL]-1H-INDOL-3-YL SULFATE, Sigma-Aldrich, MO) and Chromanol 293B (Sigma-Aldrich, MO) were dissolved in bath solutions. All the chemicals were purchased from Sigma-Aldrich. To measure the I–V relations of the Kir1.1 channel, the test voltage was set from −100 to +60 mV for 1 s with 20-mV increments. The test pulses were stepped from a holding potential of 0 mV and then stepped back to 0 mV. The HCN4 currents were recorded by a test pulse between −30 and −140 mV in 10-mV step from a holding potential of −30 mV. For all the other potassium channels and CaV1.2 channel, the holding potential was −80 or −100 mV, and the test pulse was applied with 10-mV increment, which was followed with a repolarization pulse at −40 mV before returning to the holding potential. The durations of test and the repolarization pulse vary for different channels to allow the activation and deactivation of the channel to reach their steady states.

hERG, sequence (Q12809 whole entry): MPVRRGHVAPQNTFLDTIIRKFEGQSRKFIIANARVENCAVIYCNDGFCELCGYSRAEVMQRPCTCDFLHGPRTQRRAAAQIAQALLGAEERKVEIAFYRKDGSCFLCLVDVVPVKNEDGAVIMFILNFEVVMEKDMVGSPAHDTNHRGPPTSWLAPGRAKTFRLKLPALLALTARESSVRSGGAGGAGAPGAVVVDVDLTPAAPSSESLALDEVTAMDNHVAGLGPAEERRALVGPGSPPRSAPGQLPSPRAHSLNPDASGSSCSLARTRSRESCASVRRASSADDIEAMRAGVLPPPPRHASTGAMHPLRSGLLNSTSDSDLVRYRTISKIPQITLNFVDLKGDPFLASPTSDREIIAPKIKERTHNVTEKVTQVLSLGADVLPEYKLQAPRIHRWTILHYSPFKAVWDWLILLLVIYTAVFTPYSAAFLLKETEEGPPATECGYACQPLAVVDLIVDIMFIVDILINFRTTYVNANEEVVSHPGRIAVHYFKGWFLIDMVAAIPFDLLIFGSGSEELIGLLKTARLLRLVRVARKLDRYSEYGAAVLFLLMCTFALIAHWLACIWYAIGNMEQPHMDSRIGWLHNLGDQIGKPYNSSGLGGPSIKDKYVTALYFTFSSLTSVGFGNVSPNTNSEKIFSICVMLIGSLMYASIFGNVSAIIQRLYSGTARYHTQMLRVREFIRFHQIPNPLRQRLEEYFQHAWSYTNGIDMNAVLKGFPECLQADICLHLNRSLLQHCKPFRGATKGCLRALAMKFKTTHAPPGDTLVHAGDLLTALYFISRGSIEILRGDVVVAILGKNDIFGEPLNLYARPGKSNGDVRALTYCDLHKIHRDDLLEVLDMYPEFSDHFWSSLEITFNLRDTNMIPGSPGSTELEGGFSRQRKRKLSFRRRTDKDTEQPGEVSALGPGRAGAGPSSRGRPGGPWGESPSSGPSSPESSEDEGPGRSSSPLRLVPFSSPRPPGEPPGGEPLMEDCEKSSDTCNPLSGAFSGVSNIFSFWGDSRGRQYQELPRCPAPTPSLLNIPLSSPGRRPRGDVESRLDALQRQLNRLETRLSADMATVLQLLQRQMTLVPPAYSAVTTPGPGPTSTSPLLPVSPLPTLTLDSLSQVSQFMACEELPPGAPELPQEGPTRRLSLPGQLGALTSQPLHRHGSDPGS

## O=S(=O)([O-])Oc1c(-c2sc3c(ccc4cccc(Cl)c43)c2OS(=O)(=O)[O-])[nH]c2ccc(Br)cc12.[Na+].[Na+] [CP1, DISODIUM 5-BROMO-2-[9-CHLORO-3-(SULFONATOOXY) NAPHTHO [1,2-B] THIEN-2-YL]-1H-INDOL-3-YL SULFATE]
  ΔV1/2 of G–V relations: 6.85 ± 1.81 mV
Voltage 0 mV
  G/Gmax Mean (Fig. 6e): 0.8601
Voltage 10 mV
  G/Gmax Mean (Fig. 6e): 0.9576
Voltage 20 mV
  G/Gmax Mean (Fig. 6e): 1.0000
Voltage 30 mV
  G/Gmax Mean (Fig. 6e): 0.9916
Voltage 40 mV
  G/Gmax Mean (Fig. 6e): 0.9932
Voltage 50 mV
  G/Gmax Mean (Fig. 6e): 0.9886
Voltage 60 mV
  G/Gmax Mean (Fig. 6e): 0.9837
Voltage -10 mV
  G/Gmax Mean (Fig. 6e): 0.6448
Voltage -20 mV
  G/Gmax Mean (Fig. 6e): 0.3564
Voltage -30 mV
  G/Gmax Mean (Fig. 6e): 0.1368
Voltage -40 mV
  G/Gmax Mean (Fig. 6e): 0.0404
Voltage -50 mV
  G/Gmax Mean (Fig. 6e): 0.0144
Voltage -60 mV
  G/Gmax Mean (Fig. 6e): 0.0098
Voltage -70 mV
  G/Gmax Mean (Fig. 6e): 0.0091
Voltage -80 mV
  G/Gmax Mean (Fig. 6e): 0.0089
Voltage -90 mV
  G/Gmax Mean (Fig. 6e): 0.0084
Voltage -100 mV
  G/Gmax Mean (Fig. 6e): 0.0080
Voltage -110 mV
  G/Gmax Mean (Fig. 6e): 0.0069
Voltage -120 mV
  G/Gmax Mean (Fig. 6e): 0.0065
